Source: patent US20220031709A1, “INHIBITION OF MICROSOMAL PROSTAGLANDIN E2 (PGE2) SYNTHASE-1 (MPGES-1)” (University of Kentucky Research Foundation, priority 2020, published 2022)

Assays:
JAK = conditions: in vitro effect of PGE2; cited from earlier work
[1] = single IV dose in clinical trial: ceftriaxone 2 g, aztreonam 500 mg, cefotetan 1 g; read-out: Cmax in human plasma; cited from earlier work
[2] = tested on: carrageenan-induced hyperalgesia; experiment: post-treatment model of carrageenan-induced hyperalgesia; type: in vivo, wild-type rats; conditions: for pain relief (PWL), post-treatment: treated IP 23 h after carrageenan, ceftriaxone 100 or 200 mg/kg, cefotetan 50 or 100 mg/kg, oxycodone 5 mg/kg
Method: To better model the clinical treatment of pain, ceftriaxone (FIG. 4) and cefotetan (FIG. 5) were also tested in a post-treatment model of carrageenan-induced hyperalgesia. Rats were first injected with carrageenan to induce the hyperalgesia/pain.

human mPGES-1 = target: T1, human mPGES-1 (Homo sapiens, UniProt O14684); experiment: in vitro activity assay (ELISA) against human mPGES-1; type: biochemical
T1 sequence (O14684 1-152): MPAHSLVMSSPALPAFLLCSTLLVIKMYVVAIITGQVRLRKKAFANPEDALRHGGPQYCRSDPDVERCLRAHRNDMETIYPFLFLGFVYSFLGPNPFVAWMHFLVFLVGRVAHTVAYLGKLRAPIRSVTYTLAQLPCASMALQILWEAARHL
Method: The inhibitory activity of these drugs against human mPGES-1 was determined in vitro using the previously described in vitro activity procedure, an enzyme-linked immunosorbent assay (ELISA). (Ding et al., 2018a; Ding et al., 2018b; Zhou et al., 2017).

[3] = tested on: carrageenan-induced hyperalgesia; experiment: carrageenan-induced hyperalgesia, pre-treatment (paw withdrawal latency); type: in vivo, wild-type rats; conditions: for effect on carrageenan-induced hyperalgesia (PWL): IP 1 h before 1% carrageenan, ceftriaxone 200 mg/kg, cefotetan 100 mg/kg, oxycodone 5 mg/kg
[4] = tested on: CFA-induced knee joint arthritis; experiment: CFA (adjuvant)-induced knee joint arthritis, arthritis score; type: in vivo, wild-type rats; conditions: IP daily on Days 3 to 6 after CFA on Day 0
Method: FIG. 6 illustrates the anti-inflammatory and analgesic effects (in terms of arthritis score) of ceftriaxone and cefotetan on CFA-induced knee joint arthritis in wild-type rats (n=10 for each group). CFA was injected to the knee joint on Day 0. Drug or vehicle (control) was injected (IP) daily on Days 3 to 6. Arthritis score (mean spontaneous pain rating) measured on Days 0 to 6, 8, 10, and 12.
Ceftriaxone and cefotetan were further tested using an adjuvant-induced knee joint arthritis model described by Hammell et al. 2016. Using this one-week knee joint arthritis model, CFA was injected to the knee joint on Day 0 to induce chronic arthritis and associated pain, followed by daily PWL and arthritis score (mean spontaneous pain rating) assessments from Day 0 to Day 7.
Daily treatment with ceftriaxone and cefotetan or vehicle (control group) started on Day 3 (after the arthritis score assessment on that day) and continued until Day 6. There were a total of four doses of the respective treatment from Day 3 to Day 6. […] On Day 3, the arthritis score reached the peak (reflecting the most severe arthritis), which is consistent with previous observations reported for the control group. (Hammell et al., 2016).

[5] = tested on: carrageenan-induced paw edema; experiment: carrageenan-induced paw edema, pre-treatment (percent increase in paw volume); type: in vivo, wild-type rats; conditions: IP 1 h before 1% carrageenan; ceftriaxone 200 mg/kg, cefotetan 100 mg/kg, oxycodone 5 mg/kg
[6] = tested on: chronic inflammatory arthritis; conditions: placebo-controlled, double-blind study; cited from earlier work
SARS-CoV-2 = type: cell-based; conditions: cell culture; data not shown
[7] = tested on: proinflammatory cytokines (including TNF-α), GLT-1; conditions: animal models of inflammation and pain/hyperalgesia; cited from earlier work
AngII-induced AAA = experiment: angiotensin (AngII)-induced abdominal aortic aneurysm model; type: in vivo, ApoE-deficient mice; conditions: AngII minipump 28 days; ceftriaxone given beginning on Day 5
Method: FIG. 7 illustrates the anti-inflammatory effects of ceftriaxone in terms of maximum aortic diameter.
Ceftriaxone was also tested in treatment of angiotensin (AngII)-induced AAA model. This experiment was performed using ApoE-deficient mice. AngII (with a minipump to continuously release the AngII solution within 28 days) was used to induce AAA in this strain of mice beginning Day 0 for all animals in both control and intervention groups.
The AAA was characterized by the maximum aortic diameter […] detected by the ultrasound method. Ceftriaxone was given beginning on Day 5 for intervention.

[8] = mouse, in vivo; cited from earlier work

Row | Compound | Cmax [1] [µM] | pain relief (PWL), post-treatment [2] | effect on carrageenan-induced hyperalgesia (PWL) [3] | arthritis score (mean spontaneous pain rating) [4] | effect on carrageenan-induced paw edema (percent increase in paw volume) [5] | also measured
1 | N#C/C(=C/c1ccc(O)c(O)c1)C(=O)NCc1ccccc1 [AG490] |  |  |  |  |  | block of PGE2-induced inflammatory hyperalgesia effect (JAK): able to block this in vitro effect of PGE2
2 | C[C@H]1[C@H](NC(=O)/C(=N\OC(C)(C)C(=O)O)c2csc(N)n2)C(=O)N1S(=O)(=O)O [aztreonam] | 129 |  |  |  |  | 
3 | CO[C@@]1(NC(=O)C2SC(=C(C(N)=O)C(=O)O)S2)C(=O)N2C(C(=O)O)=C(CSc3nnnn3C)CS[C@@H]21 (stereo partly shown) [cefotetan] | 440 | significantly, and dose-dependently, relieved the pain | has the desired anti-inflammatory and analgesic effects | mean spontaneous pain rating was reduced | has the desired anti-inflammatory and analgesic effects | IC50 (human mPGES-1): 13.5 µM
4 | CO/N=C(\C(=O)N[C@@H]1C(=O)N2C(C(=O)O)=C(CSc3nc(=O)c(=O)[nH]n3C)CS[C@H]12)c1csc(N)n1 [ceftriaxone] | 463 | significantly, and dose-dependently, relieved the pain | completely suppressed carrageenan-induced hyperalgesia | mean spontaneous pain rating was reduced | significantly decreased the percent increase in the paw volume | clinical efficacy in chronic inflammatory arthritis [6]: efficacious in treatment of chronic inflammatory arthritis; cytoprotective activity against SARS-CoV-2 infection (SARS-CoV-2): cytoprotective against SARS-CoV-2 infection; effect on proinflammatory cytokines and GLT-1 [7]: effectively attenuated the proinflammatory cytokines (including TNF-α) and reversed the downregulation of GLT-1; progression of AAA (maximum aortic diameter, ultrasound) (AngII-induced AAA): significantly stopped the progression of AAA, and it even reversed the AAA
5 | Cc1ccc(-c2cc(C(F)(F)F)nn2-c2ccc(S(N)(=O)=O)cc2)cc1 [celecoxib] |  |  |  |  |  | toxicity in mice [8]: very toxic for stomach and other issues of mice, and bleeding ulcer was observed at gastric mucosa
6 | COc1ccc2c3c1O[C@H]1C(=O)CC[C@@]4(O)[C@@H](C2)N(C)CC[C@]314 [oxycodone] |  | significantly relieved the pain | effectively relieved the pain within six hours after oxycodone injection |  |  | PWL peak time ([2]; oxycodone 5 mg/kg IP, post-treatment): 1 h; pain (PWL) at 23 h ([3]; oxycodone 5 mg/kg IP pre-treatment, 23 h (next day)): still significant pain at 23 h
